“Also recorded” adds a separate entry of the source.
Columns and labels:
hERG = hERG (Homo sapiens, UniProt Q12809); experiment: hERG GLP safety pharmacology study
rat micronucleus = experiment: In vivo rat micronucleus study; conditions: highest doses tested
mammalian cell = experiment: Chromosomal aberration assay (in vitro mammalian cell assay); format: cell-based; conditions: highest doses tested
male Cynomolgus macaques = experiment: NHP repeat dose non-GLP efficacy study (sperm counts, MABEL); format: in vivo, cynomolgus macaque
Experimental: Animals and husbandry. Six (6) sexually mature, non-naïve male Cynomolgus macaques (8-15 years, 6-15 kg) were used. The animals were individually housed in a humidity- and temperature-controlled facility under a 12 h light/12 h dark diurnal cycle with two daily meals and water ad libitum. The animals were provided with cage toys and daily fresh fruits for environmental enrichment. The animals were acclimated for 2 weeks and observed twice daily to assess overall health and behavior. The animal use protocol was approved by WuXi App Tec's IACUC per the Association for Assessment and Accreditation of Laboratory Animal Care (AAALAC) guideline. The conduct of the study followed the Guidance for the Care and Use of Laboratory Animals (NRC 2011, 8th Edition), with a USDA Category C for the pain and distress level. The humane endpoints included: significant body weight drop of 20% within 7 days, severe adverse effort associated with the administration of the test article, pain and distress caused by any of the in-life procedures, and injury sustained during any time of the experiment that could impact the well-being of the animal (all determined by attending veterinarian). All animals were non-naïve and only animals that had normal hematology and serum chemistry parameters, and normal baseline sperm counts were included in the studies. After the end of the study, all animals were returned to the colony. Confounders were not controlled.
Dosing regimens. […] The formulation (Compound A in saline) was prepared freshly each day of dosing. […] Repeat dose administration: Three (3) Cohort 1 animals were dosed at 0.5 mg/kg/day (Day 1-46) followed by 1.5 mg/kg/day (Day 47-51), 2.5 mg/kg/day (Day 52-101) and 5 mg/kg/day (Day 102-108). Three (3) Cohort 2 animals were dosed at 5 mg/kg/day (Day 1-30) followed by 7.5 mg/kg/day (Day 31-37). No control animals were used in the single and repeat dose studies. Since bioavailability was assessed at time point zero in the PK study and sperm parameters were assessed at pre-dose in the efficacy studies, each animal served as its own control.
Semen collection and sperm count/concentration assessment. Semen samples were obtained once per week or once every other week via electroejaculation during the entire repeat dose study periods from all 3 animals per Cohort to assess sperm concentration and count. Samples were left at room temperature for 30 min to allow for liquefication. Liquefied semen was diluted with 3% NaCl solution for manual sperm count assessment using a hemocytometer. All samples were analyzed in triplicates. Sperm concentration per ejaculate was calculated with the following formula: Sperm concentration=Sperm count×104×Dilution factor. No data point was excluded from the analysis.
Testicular biopsy collection and histology. Testicular biopsies (2 per animal; one from the right and one from the left testicle) were taken 24 h after administering the last dose and on the last day of the recovery period from all 3 animals per Cohort to assess morphological changes. Preoperative care of animals consisted of food restriction and general examination. All surgical procedures were conducted using aseptic techniques and comprehensive physiologic monitoring. The animals were anesthetized with Zoletil 50 (5 mg/kg) by intramuscular (i.m.) injection. The scrotum was disinfected with iodine and 75% alcohol, and lidocaine (1%) was administered intradermally at the biopsy needle insertion site. Core biopsies (one per testis) were collected with a 16 G TSK starcut biopsy needle. Immediately after biopsy collection, animals received Meloxicam (0.2 mg/kg) and Ketorolac (10 mg) for pain relief, and Ceftriaxone sodium (0.5 g) as […] (all via i.m. injection). Meloxicam was given once daily for 3 consecutive days, Ketorolac twice daily for 2 days, and Ceftriaxone sodium once daily for 4 days post-collection. […]

male dogs = experiment: Dog single dose non-GLP study; format: in vivo
[1] = In vitro stability in microsomes (dog); format: in vitro ADME; conditions: dogs
Experimental: Respective half-lives (T1/2) were 9.5 hours (human), 23.1 hours (monkeys), >23.1 hours (mice), >23.1 hours (rats), 19.6 hours (rabbits), and >23.1 hours (dogs).

plasma proteins = experiment: In vitro plasma protein binding; format: in vitro ADME; conditions: 1 μM, all species tested (human, monkey, mouse, rat, dog)
CYP2D6 = CYP2D6 (Homo sapiens, UniProt P10635); experiment: In vitro CYP inhibition (direct and time-dependent), CYP2D6; format: in vitro ADME
Sequence of CYP2D6 (P10635 whole entry): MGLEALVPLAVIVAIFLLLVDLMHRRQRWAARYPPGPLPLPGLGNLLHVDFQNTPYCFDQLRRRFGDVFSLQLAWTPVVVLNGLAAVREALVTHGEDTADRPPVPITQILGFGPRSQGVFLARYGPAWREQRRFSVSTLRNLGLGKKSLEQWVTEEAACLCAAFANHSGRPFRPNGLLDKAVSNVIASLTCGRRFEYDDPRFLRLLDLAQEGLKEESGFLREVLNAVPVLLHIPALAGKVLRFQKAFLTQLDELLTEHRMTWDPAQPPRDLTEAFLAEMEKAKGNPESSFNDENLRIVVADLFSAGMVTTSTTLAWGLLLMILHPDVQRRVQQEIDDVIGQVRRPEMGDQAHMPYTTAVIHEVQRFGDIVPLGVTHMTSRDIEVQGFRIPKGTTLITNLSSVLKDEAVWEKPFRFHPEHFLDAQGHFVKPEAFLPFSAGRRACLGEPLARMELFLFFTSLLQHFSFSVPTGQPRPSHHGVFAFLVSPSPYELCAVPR
Description: However, the likelihood of drug interactions is low since healthy participants who meet eligibility criteria will be enrolled in this Phase 1b/2a clinical trial. An allowance for select concomitant medications may be considered for select participants at the discretion of the investigator and/or sponsor if drug profiles are not anticipated to interact with Compound A. Such medications may include, but will not be limited to paracetamol or ibuprofen as assessed by both the PI and the Sponsor. […] Additional precautions to avoid grapefruit, pomegranates, star fruit, or Seville oranges for 7 days prior to admission, and juices and products containing these fruits for the duration of the study will be taken.

[2] = In vitro molar extinction coefficient assay; format: physicochemical; conditions: UV light
Description: As a result, participants will be advised to minimize exposure to sunlight, wear sunglasses and clothing that minimizes exposure to sunlight, and use sun cream on exposed areas when going outdoors during the 28-Day dosing period and until 10 days post last dose.

rat = experiment: Rat repeat daily dosing at non-tolerated doses; format: in vivo
Experimental: These doses convert to respective Human Equivalent Doses (HEDs) of ≥1,612.8 mg and ≥444.8 mg fixed dose based on 80 kg body weight. […] Safety laboratory analyses include serum chemistry, hematology, coagulation, and lipid panel.

[3] = Dog single dose cardiovascular study; conditions: male, Beagle, dog, in vivo
male Beagle dogs = experiment: Dog single dose cardiovascular study; conditions: male Beagle dogs, single dose 2.5, 5 or 25 mg/kg

Sequence of hERG (Q12809 whole entry): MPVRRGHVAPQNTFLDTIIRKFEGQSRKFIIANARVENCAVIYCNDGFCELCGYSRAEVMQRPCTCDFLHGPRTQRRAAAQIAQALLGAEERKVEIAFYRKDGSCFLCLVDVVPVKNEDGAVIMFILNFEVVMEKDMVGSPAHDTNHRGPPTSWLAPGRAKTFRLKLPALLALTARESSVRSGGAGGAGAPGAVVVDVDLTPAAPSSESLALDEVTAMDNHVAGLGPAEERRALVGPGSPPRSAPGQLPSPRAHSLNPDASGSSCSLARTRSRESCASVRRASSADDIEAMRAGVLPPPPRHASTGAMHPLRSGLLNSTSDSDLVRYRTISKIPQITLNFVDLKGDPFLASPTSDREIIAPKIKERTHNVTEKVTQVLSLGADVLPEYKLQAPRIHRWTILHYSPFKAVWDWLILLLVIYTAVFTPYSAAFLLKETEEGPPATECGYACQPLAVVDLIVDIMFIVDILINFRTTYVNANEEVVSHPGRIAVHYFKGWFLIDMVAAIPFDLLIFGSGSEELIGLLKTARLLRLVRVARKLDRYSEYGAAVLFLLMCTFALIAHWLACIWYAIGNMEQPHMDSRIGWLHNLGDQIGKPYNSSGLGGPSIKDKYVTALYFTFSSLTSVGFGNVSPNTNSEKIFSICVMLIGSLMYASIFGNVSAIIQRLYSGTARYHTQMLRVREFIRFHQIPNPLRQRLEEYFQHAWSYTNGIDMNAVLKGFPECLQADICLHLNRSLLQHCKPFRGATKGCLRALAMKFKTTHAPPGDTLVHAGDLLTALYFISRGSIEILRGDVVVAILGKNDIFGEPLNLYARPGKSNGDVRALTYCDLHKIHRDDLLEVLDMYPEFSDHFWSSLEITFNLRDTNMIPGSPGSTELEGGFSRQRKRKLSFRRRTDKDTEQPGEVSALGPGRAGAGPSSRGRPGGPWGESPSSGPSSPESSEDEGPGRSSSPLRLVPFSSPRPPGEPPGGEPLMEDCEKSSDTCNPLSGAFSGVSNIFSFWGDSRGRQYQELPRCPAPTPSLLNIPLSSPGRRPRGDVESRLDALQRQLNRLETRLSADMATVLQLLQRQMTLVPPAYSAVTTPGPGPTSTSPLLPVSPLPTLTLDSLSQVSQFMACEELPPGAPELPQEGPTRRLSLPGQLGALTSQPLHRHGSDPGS

## Cc1ccc(C2=CC(C)(C)Oc3ccc(-c4ccc(-c5ccc(C(=O)O)cc5)[nH]4)cc32)cc1 [Compound A]
hERG
  Main outcomes: hERG: Clean
Rat micronucleus
  Genotoxicity: rat micronucleus: not genotoxic; also recorded: no genotoxic potential; also recorded: Clean
Mammalian cell
  Genotoxicity: chromosomal aberration: not genotoxic; also recorded: no genotoxic potential; also recorded: Clean
Male Cynomolgus macaques; NHP
  HED (based on BSA) of MABEL: 0.8 mg/kg
  HED for 60 kg BW of MABEL: 48 mg
  HED for 80 kg BW of MABEL: 64 mg
Male Cynomolgus macaques; NHP, 49-day repeat dose non-GLP
  MABEL: 2.5 mg/kg/day
Male Cynomolgus macaques; NHP, repeat dose for 7 weeks
  Lowest dose with decreases in sperm counts: 2.5 mg/kg/day
Male Cynomolgus macaques; NHPs
  Reversibility of antispermatogenic effect: 1.5-3.5 spermatogenic cycles
Male dogs; dogs, 500 mg/kg
  HED of tolerated single dose: 277.8 mg/kg
Male dogs; male dogs, non-GLP study
  Tolerated single dose (highest dose tested): 500 mg/kg
[1]; dog, read-out: Half-life (T1/2) in microsomes
  half-life: > 1390 min
[1]; 90 minutes
  Compound remaining intact: 101%
Plasma proteins
  Binding to plasma proteins: at least 99.99%
CYP2D6; CYP2D6
  IC50: > 100 µM
CYP2D6; CYP2D6, 0.3 to 100 μM
  Time-dependent inhibition (TDI): NADPH-independent time-dependent inhibition
[2]
  Phototoxicity potential: potential to cause phototoxicity
rat
  HED of not tolerated dose, fixed dose based on 80 kg body weight: ≥ 1,612.8 mg
  Not tolerated repeat daily dose (death and morbidity): ≥ 125 mg/kg/day
  Systems affected at non-tolerated doses: hematopoietic, hepatic, adrenal and lymphoid systems were affected
[3]
  NOAEL: 25 mg/kg
Male Beagle dogs
  Main outcomes: dog cardiovascular (effects): no effects; also recorded: Clean

Reference: patent publication US20260191825A1, “CONTRACEPTIVE COMPOUNDS AND DOSING FOR THE SAME” (YourChoice Therapeutics, Inc., priority 2024, published 2026)
